# Measured values published in ChEMBL document CHEMBL3885861, “Open TG-GATES”.
# Species on record: Rattus norvegicus
# Assay: Open TG-GATES - Regimen: Daily Repeat
# Type: toxicity, organism-based, Sprague-Dawley
# Parameters: regimen Daily Repeat, gender Male, age 6 weeks
# Conditions: in vivo, po, route gavage; for APTT / Bas / Eos / Fbg / Hb / Ht / Lym / MCH / MCHC / MCV / Mono / Neu / RBC / Ret / WBC / Plat / PT: tissue Blood; for KIDNEY_L / KIDNEY_R / KIDNEY_TOTAL: tissue Kidney; for ALP / ALT / AST / BUN / CRE / Ca / Cl / DBIL / GLC / IP / K / LDH / Na / PL / RALB / TBIL / TC / TG / TP / gamma-GTP: tissue Plasma
# [1] = 150 mg/kg, 72 h, dose level Middle, time 3 day
# [2] = 150 mg/kg, […], dose level Middle, time 7 day
# [3] = 150 mg/kg, […], dose level Middle, time 14 day
# [4] = 150 mg/kg, […], dose level Middle, time 28 day
# [5] = 450 mg/kg, 72 h, dose level High, time 3 day
# [6] = 450 mg/kg, […], dose level High, time 7 day
# [7] = 450 mg/kg, […], dose level High, time 14 day
# [8] = 450 mg/kg, […], dose level High, time 28 day
smiles,measurement,setting,value
CC(=O)Oc1ccccc1C(=O)O [ASPIRIN],APTT,[1],19 s
same,Bas,[1],0%
same,Eos,[1],1%
same,Fbg,[1],227.8 mg/dL
same,Hb,[1],13.4 g/dL
same,Ht,[1],39.3%
same,Lym,[1],80.8%
same,MCH,[1],21.4 pg
same,MCHC,[1],34.1%
same,MCV,[1],62.7 fL
same,Mono,[1],2.8%
same,Neu,[1],14.4%
same,RBC,[1],627.2 x10_4/ul
same,Ret,[1],5.9%
same,WBC,[1],108.2 x10_2/uL
same,KIDNEY_L,[1],1.1 g
same,KIDNEY_R,[1],1.1 g
same,KIDNEY_TOTAL,[1],2.1 g
same,ALP,[1],924.6 IU/L
same,ALT,[1],33.4 IU/L
same,AST,[1],68.4 IU/L
same,BUN,[1],12.2 mg/dL
same,CRE,[1],0.4 mg/dL
same,Ca,[1],10.6 mg/dL
same,Cl,[1],102.4 meq/L
same,DBIL,[1],0.078 mg/dL
same,GLC,[1],196.6 mg/dL
same,IP,[1],7 mg/dL
same,K,[1],3.7 meq/L
same,LDH,[1],210.2 IU/L
same,Na,[1],141 meq/L
same,PL,[1],155.8 mg/dL
same,RALB,[1],3.4 g/dL
same,TBIL,[1],0.1 mg/dL
same,TC,[1],73.8 mg/dL
same,TG,[1],117.6 mg/dL
same,TP,[1],5.6 g/dL
same,gamma-GTP,[1],1 IU/L
same,TERMINAL_BW,[2],268.1 g
same,TERMINAL_BW,[3],320.9 g
same,TERMINAL_BW,[4],404.7 g
same,APTT,[2],19.3 s
same,Bas,[2],0%
same,Eos,[2],1%
same,Fbg,[2],216 mg/dL
same,Hb,[2],14 g/dL
same,Ht,[2],41.1%
same,Lym,[2],82.4%
same,MCH,[2],20.8 pg
same,MCHC,[2],34%
same,MCV,[2],61.3 fL
same,Mono,[2],2.4%
same,Neu,[2],13.2%
same,Plat,[2],119 x10_4/uL
same,RBC,[2],671 x10_4/ul
same,Ret,[2],4.7%
same,WBC,[2],119.6 x10_2/uL
same,APTT,[3],19.5 s
same,Bas,[3],0%
same,Eos,[3],1.8%
same,Fbg,[3],204.8 mg/dL
same,Hb,[3],14.9 g/dL
same,Ht,[3],42.1%
same,Lym,[3],77.6%
same,MCH,[3],21.1 pg
same,MCHC,[3],35.3%
same,MCV,[3],59.7 fL
same,Mono,[3],2.8%
same,Neu,[3],17.2%
same,Plat,[3],125.3 x10_4/uL
same,RBC,[3],704.8 x10_4/ul
same,Ret,[3],3.5%
same,WBC,[3],156.5 x10_2/uL
same,APTT,[4],21.3 s
same,Bas,[4],0%
same,Eos,[4],1.4%
same,Fbg,[4],205.4 mg/dL
same,Hb,[4],15.4 g/dL
same,Ht,[4],44.6%
same,Lym,[4],80.2%
same,MCH,[4],19.6 pg
same,MCHC,[4],34.6%
same,MCV,[4],56.7 fL
same,Mono,[4],2.4%
same,Neu,[4],14.6%
same,Plat,[4],108.6 x10_4/uL
same,RBC,[4],789.2 x10_4/ul
same,Ret,[4],2.2%
same,WBC,[4],108.6 x10_2/uL
same,KIDNEY_L,[2],1.2 g
same,KIDNEY_R,[2],1.2 g
same,KIDNEY_TOTAL,[2],2.3 g
same,KIDNEY_L,[3],1.3 g
same,KIDNEY_R,[3],1.3 g
same,KIDNEY_TOTAL,[3],2.6 g
same,KIDNEY_L,[4],1.5 g
same,KIDNEY_R,[4],1.5 g
same,KIDNEY_TOTAL,[4],3 g
same,ALP,[2],901.8 IU/L
same,ALT,[2],35 IU/L
same,AST,[2],66.8 IU/L
same,BUN,[2],16 mg/dL
same,CRE,[2],0.4 mg/dL
same,Ca,[2],10.4 mg/dL
same,Cl,[2],102.4 meq/L
same,DBIL,[2],0.094 mg/dL
same,GLC,[2],211.6 mg/dL
same,IP,[2],8.5 mg/dL
same,K,[2],4 meq/L
same,LDH,[2],222.2 IU/L
same,Na,[2],141 meq/L
same,PL,[2],158.4 mg/dL
same,RALB,[2],3.2 g/dL
same,TBIL,[2],0.1 mg/dL
same,TC,[2],71.8 mg/dL
same,TG,[2],153.4 mg/dL
same,TP,[2],5.4 g/dL
same,gamma-GTP,[2],0.6 IU/L
same,ALP,[3],825.8 IU/L
same,ALT,[3],36.8 IU/L
same,AST,[3],77 IU/L
same,BUN,[3],14.6 mg/dL
same,CRE,[3],0.4 mg/dL
same,Ca,[3],10.4 mg/dL
same,Cl,[3],102.2 meq/L
same,DBIL,[3],0.092 mg/dL
same,GLC,[3],187.4 mg/dL
same,IP,[3],8 mg/dL
same,K,[3],4.2 meq/L
same,LDH,[3],252 IU/L
same,Na,[3],141.6 meq/L
same,PL,[3],158.6 mg/dL
same,RALB,[3],3.3 g/dL
same,TBIL,[3],0.1 mg/dL
same,TC,[3],72.4 mg/dL
same,TG,[3],151.4 mg/dL
same,TP,[3],5.5 g/dL
same,gamma-GTP,[3],0.8 IU/L
same,ALP,[4],641.6 IU/L
same,ALT,[4],35.8 IU/L
same,AST,[4],81.4 IU/L
same,BUN,[4],16.2 mg/dL
same,CRE,[4],0.5 mg/dL
same,Ca,[4],10.2 mg/dL
same,Cl,[4],102.8 meq/L
same,DBIL,[4],0.1 mg/dL
same,GLC,[4],229.2 mg/dL
same,IP,[4],7.3 mg/dL
same,K,[4],3.8 meq/L
same,LDH,[4],193 IU/L
same,Na,[4],142.2 meq/L
same,PL,[4],149.8 mg/dL
same,RALB,[4],3.4 g/dL
same,TBIL,[4],0.2 mg/dL
same,TC,[4],69.4 mg/dL
same,TG,[4],148.8 mg/dL
same,TP,[4],5.8 g/dL
same,gamma-GTP,[4],0.6 IU/L
same,TERMINAL_BW,[5],232.1 g
same,APTT,[5],24.9 s
same,Bas,[5],0%
same,Eos,[5],0.4%
same,Fbg,[5],212.4 mg/dL
same,Hb,[5],13.5 g/dL
same,Ht,[5],39.3%
same,Lym,[5],81.4%
same,MCH,[5],21.4 pg
same,MCHC,[5],34.2%
same,MCV,[5],62.5 fL
same,Mono,[5],2%
same,Neu,[5],14.8%
same,PT,[5],14.1 s
same,Plat,[5],122.2 x10_4/uL
same,RBC,[5],630 x10_4/ul
same,Ret,[5],4.7%
same,WBC,[5],126.2 x10_2/uL
same,KIDNEY_L,[5],1.1 g
same,KIDNEY_R,[5],1.1 g
same,KIDNEY_TOTAL,[5],2.2 g
same,ALP,[5],880.2 IU/L
same,ALT,[5],47 IU/L
same,AST,[5],82.4 IU/L
same,BUN,[5],14.8 mg/dL
same,CRE,[5],0.4 mg/dL
same,Ca,[5],11.2 mg/dL
same,Cl,[5],103 meq/L
same,DBIL,[5],0.1 mg/dL
same,GLC,[5],188 mg/dL
same,IP,[5],7.1 mg/dL
same,K,[5],3.7 meq/L
same,LDH,[5],233.4 IU/L
same,Na,[5],142.2 meq/L
same,PL,[5],147.2 mg/dL
same,RALB,[5],3.3 g/dL
same,TBIL,[5],0.2 mg/dL
same,TC,[5],62.2 mg/dL
same,TG,[5],187 mg/dL
same,TP,[5],5.5 g/dL
same,gamma-GTP,[5],1.4 IU/L
same,TERMINAL_BW,[6],257.1 g
same,TERMINAL_BW,[7],301.6 g
same,TERMINAL_BW,[8],356.2 g
same,APTT,[6],22.6 s
same,Bas,[6],0%
same,Eos,[6],0.8%
same,Fbg,[6],210.2 mg/dL
same,Hb,[6],13.3 g/dL
same,Ht,[6],39.6%
same,Lym,[6],81.6%
same,MCH,[6],21.2 pg
same,MCHC,[6],33.7%
same,MCV,[6],63 fL
same,Mono,[6],2.2%
same,Neu,[6],14%
same,PT,[6],13.6 s
same,Plat,[6],111.3 x10_4/uL
same,RBC,[6],629.4 x10_4/ul
same,Ret,[6],7.9%
same,WBC,[6],159.1 x10_2/uL
same,APTT,[7],22.1 s
same,Bas,[7],0%
same,Eos,[7],1%
same,Fbg,[7],210 mg/dL
same,Hb,[7],14.5 g/dL
same,Ht,[7],41.5%
same,Lym,[7],78.6%
same,MCH,[7],21.3 pg
same,MCHC,[7],34.9%
same,MCV,[7],61.1 fL
same,Mono,[7],2.6%
same,Neu,[7],16.4%
same,PT,[7],13 s
same,Plat,[7],125.9 x10_4/uL
same,RBC,[7],679.8 x10_4/ul
same,Ret,[7],4.7%
same,WBC,[7],146.8 x10_2/uL
same,APTT,[8],23.9 s
same,Bas,[8],0%
same,Eos,[8],1%
same,Fbg,[8],194.2 mg/dL
same,Hb,[8],14.9 g/dL
same,Ht,[8],43.2%
same,Lym,[8],76.6%
same,MCH,[8],20.1 pg
same,MCHC,[8],34.5%
same,MCV,[8],58.2 fL
same,Mono,[8],2.6%
same,Neu,[8],18.8%
same,PT,[8],14 s
same,Plat,[8],90.2 x10_4/uL
same,RBC,[8],746.6 x10_4/ul
same,Ret,[8],3.3%
same,WBC,[8],115.2 x10_2/uL
same,KIDNEY_L,[6],1.1 g
same,KIDNEY_R,[6],1.1 g
same,KIDNEY_TOTAL,[6],2.3 g
same,KIDNEY_L,[7],1.3 g
same,KIDNEY_R,[7],1.3 g
same,KIDNEY_TOTAL,[7],2.5 g
same,KIDNEY_L,[8],1.3 g
same,KIDNEY_R,[8],1.4 g
same,KIDNEY_TOTAL,[8],2.7 g
same,ALP,[6],1005.2 IU/L
same,ALT,[6],51.6 IU/L
same,AST,[6],102.4 IU/L
same,BUN,[6],16.8 mg/dL
same,CRE,[6],0.5 mg/dL
same,Ca,[6],11 mg/dL
same,Cl,[6],102.4 meq/L
same,DBIL,[6],0.1 mg/dL
same,GLC,[6],207.4 mg/dL
same,IP,[6],7.4 mg/dL
same,K,[6],4.1 meq/L
same,LDH,[6],248.2 IU/L
same,Na,[6],142 meq/L
same,PL,[6],158.6 mg/dL
same,RALB,[6],3.4 g/dL
same,TBIL,[6],0.2 mg/dL
same,TC,[6],66.8 mg/dL
same,TG,[6],182.4 mg/dL
same,TP,[6],5.3 g/dL
same,gamma-GTP,[6],1.2 IU/L
same,ALP,[7],871 IU/L
same,ALT,[7],46.2 IU/L
same,AST,[7],92.8 IU/L
same,BUN,[7],16.4 mg/dL
same,CRE,[7],0.5 mg/dL
same,Ca,[7],10.8 mg/dL
same,Cl,[7],101.4 meq/L
same,DBIL,[7],0.1 mg/dL
same,GLC,[7],175.8 mg/dL
same,IP,[7],7.6 mg/dL
same,K,[7],4.4 meq/L
same,LDH,[7],312 IU/L
same,Na,[7],141.2 meq/L
same,PL,[7],170.6 mg/dL
same,RALB,[7],3.3 g/dL
same,TBIL,[7],0.2 mg/dL
same,TC,[7],65.6 mg/dL
same,TG,[7],250.6 mg/dL
same,TP,[7],5.4 g/dL
same,gamma-GTP,[7],0.8 IU/L
same,ALP,[8],771.8 IU/L
same,ALT,[8],40.6 IU/L
same,AST,[8],85.6 IU/L
same,BUN,[8],18.4 mg/dL
same,CRE,[8],0.5 mg/dL
same,Ca,[8],10.3 mg/dL
same,Cl,[8],102.6 meq/L
same,DBIL,[8],0.094 mg/dL
same,GLC,[8],204.4 mg/dL
same,IP,[8],6.5 mg/dL
same,K,[8],4 meq/L
same,LDH,[8],179 IU/L
same,Na,[8],141.8 meq/L
same,PL,[8],146.6 mg/dL
same,RALB,[8],3.4 g/dL
same,TBIL,[8],0.2 mg/dL
same,TC,[8],58.2 mg/dL
same,TG,[8],172.4 mg/dL
same,TP,[8],5.2 g/dL
same,gamma-GTP,[8],1 IU/L
